Results published in ChEMBL document CHEMBL1137017, “In vitro antiviral activity and cross-resistance profile of PL-100, a novel protease inhibitor of human immunodeficiency virus type 1” (Antimicrob Agents Chemother, 2007).

Key:
[1] = system: Human immunodeficiency virus 1; experiment: Antiviral activity against wild type HIV1 NL4-3 infected in MT4 cells after 6 days by MTT assay; assay type: functional, organism-based; settings: Human immunodeficiency virus 1, NL4-3, MT4, 144 h
[2] = Cytotoxicity against human MT4 cells after 6 days by MTT assay; assay type: cell-based
[3] = system: Human immunodeficiency virus 1; experiment: Antiviral activity against wild type HIV1 NL4-3 in HEK293 cells after 48 hrs by replication-deffective luciferase reporter gene-based phenotypic assay; assay type: functional, organism-based; settings: Human immunodeficiency virus 1, NL4-3, HEK293, 48 h
[4] = target: Protease (Human immunodeficiency virus 1, UniProt Q9YQ12); experiment: Inhibition of HIV1 protease
[5] = Inhibition of pig pepsin; set-up: species or system Sus scrofa
[6] = target: Cathepsin D (Homo sapiens, UniProt P07339); experiment: Inhibition of human cathepsin D
Sequence of Cathepsin D (P07339 65-162 limits assumed): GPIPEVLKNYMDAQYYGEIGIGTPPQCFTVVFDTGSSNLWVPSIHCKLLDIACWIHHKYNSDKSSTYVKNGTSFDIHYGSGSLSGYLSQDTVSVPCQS
Sequence of Cathepsin D (P07339 169-412 limits assumed): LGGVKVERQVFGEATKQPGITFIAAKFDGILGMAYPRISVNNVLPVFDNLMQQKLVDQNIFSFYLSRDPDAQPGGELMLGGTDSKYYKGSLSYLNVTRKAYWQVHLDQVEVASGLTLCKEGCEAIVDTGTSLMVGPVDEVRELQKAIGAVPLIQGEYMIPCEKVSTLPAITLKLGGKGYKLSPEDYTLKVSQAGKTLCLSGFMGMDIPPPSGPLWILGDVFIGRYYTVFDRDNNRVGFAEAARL

Sequence of Protease (Q9YQ12 whole entry): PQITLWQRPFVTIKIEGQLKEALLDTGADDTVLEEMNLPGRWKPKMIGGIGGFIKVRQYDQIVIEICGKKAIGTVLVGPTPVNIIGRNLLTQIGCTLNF

`CC(C)c1nc(CN(C)C(=O)N[C@H](C(=O)N[C@@H](Cc2ccccc2)C[C@H](O)[C@H](Cc2ccccc2)NC(=O)OCc2cncs2)C(C)C)cs1` [RITONAVIR] showed an EC50 [1] of 61 nM.
Work on `CC(C)(C)NC(=O)[C@@H]1C[C@@H]2CCCC[C@@H]2CN1C[C@@H](O)[C@H](Cc1ccccc1)NC(=O)[C@H](CC(N)=O)NC(=O)c1ccc2ccccc2n1` yielded a CC50 at 144 h [2] of 19000 nM, an EC50 [1] of 12 nM and an EC50 [3] of 1.8 nM.
Compound `CC(C)(C)NC(=O)[C@@H]1CN(Cc2cccnc2)CCN1C[C@@H](O)C[C@@H](Cc1ccccc1)C(=O)N[C@H]1c2ccccc2C[C@H]1O` has a CC50 at 144 h [2] greater than 100000 nM, an EC50 [1] of 67 nM and an EC50 [3] of 7.8 nM.
In the case of `CC(C)CN(C[C@@H](O)[C@H](Cc1ccccc1)NC(=O)O[C@H]1CCOC1)S(=O)(=O)c1ccc(N)cc1`, the CC50 at 144 h [2] is reported as greater than 100000 nM, the Ki [4] is reported as 0.117 nM and the EC50 [1] is reported as 51 nM. For the same compound, the IC50 [5] was 280 nM, the IC50 [6] was 15200 nM and the EC50 [3] was 10.7 nM.
Compound `Cc1cccc(C)c1OCC(=O)N[C@@H](Cc1ccccc1)[C@@H](O)C[C@H](Cc1ccccc1)NC(=O)[C@H](C(C)C)N1CCCNC1=O` [LOPINAVIR] has a CC50 at 144 h [2] of 28000 nM, an EC50 [1] of 19 nM and an EC50 [3] of 2.8 nM.
